# Results published in US12077503B2, “Substituted cyclic amides and their use as herbicides” (FMC CORPORATION, priority 2015, dated 2024).
# What was measured:
# Type in all cases: in vivo
# [1] = tested on: barnyardgrass (Echinochloa crus-galli); assay: Test B flooded paddy test; conditions: Flood, 250 g ai/ha; 0 to 100 scale where 0 is no effect and 100 is complete control; 13 to 15 d
# Procedure, shortened: (§1)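 Response scored visually against untreated controls, 0 = no effect and 100 = complete control, 13–15 d after treatment in the greenhouse. Compounds added to paddy water held 3 cm above soil surface. Treatment given at 2-leaf stage.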
# rice (Oryra sativa) = assay: Test B flooded paddy test; conditions: Flood, 250 g ai/ha; 0 to 100 scale where 0 is no effect and 100 is complete control; 13 to 15 d
# Procedure, shortened: as §1
# [2] = tested on: sedge, umbrella (small-flower umbrella sedge, Cyperus difformis); assay: Test B flooded paddy test; conditions: Flood, 250 g ai/ha; 0 to 100 scale where 0 is no effect and 100 is complete control; 13 to 15 d
# Procedure, shortened: as §1
# [3] = tested on: ducksalad (Heteranthera limosa); assay: Test B flooded paddy test; conditions: Flood, 250 g ai/ha; 0 to 100 scale where 0 is no effect and 100 is complete control; 13 to 15 d
# Procedure, shortened: as §1
# corn (Zea mays) = assay: Test A postemergence
# Procedure, shortened: (§2)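 Preemergence soil spray on seeded pots or post-emergence spray on 1–2 leaf plants, in loam–sand blend. Greenhouse ~10 d. Visual rating 0–100 against untreated plants.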
# Kochia (Kochia scoparia) [4] = assay: Test A postemergence
# Procedure, shortened: as §2
# [5] = tested on: giant foxtail (Setaria faberii); assay: Test A postemergence
# Procedure, shortened: as §2
# [6] = tested on: ryegrass, Italian (Italian ryegrass, Lolium multiflorum); assay: Test A postemergence
# Procedure, shortened: as §2
# [7] = tested on: barnyardgrass (Echinochloa crus-galli); assay: Test A postemergence
# Procedure, shortened: as §2
# [8] = tested on: wheat (Triticum aestivum); assay: Test A postemergence
# Procedure, shortened: as §2
# [9] = tested on: Galium (catchweed bedstraw, Galium aparine); assay: Test A postemergence
# Procedure, shortened: as §2
# [10] = tested on: blackgrass (Alopecurus myosuroides); assay: Test A postemergence
# Procedure, shortened: as §2
# [11] = tested on: ragweed (common ragweed, Ambrosia elatior); assay: Test A postemergence
# Procedure, shortened: as §2
# [12] = tested on: pigweed (Amaranthus retroflexus); assay: Test A postemergence
# Procedure, shortened: as §2
# Kochia (Kochia scoparia) [13] = assay: Test A preemergence
# Procedure, shortened: as §2
# [14] = tested on: giant foxtail (Setaria faberii); assay: Test A preemergence
# Procedure, shortened: as §2
# [15] = tested on: ryegrass, Italian (Italian ryegrass, Lolium multiflorum); assay: Test A preemergence
# Procedure, shortened: as §2
# [16] = tested on: barnyardgrass (Echinochloa crus-galli); assay: Test A preemergence
# Procedure, shortened: as §2
# [17] = tested on: ragweed (common ragweed, Ambrosia elatior); assay: Test A preemergence
# Procedure, shortened: as §2
# [18] = tested on: pigweed (Amaranthus retroflexus); assay: Test A preemergence
# [19] = 125 g ai/ha, postemergence, visual injury rating on 0 to 100 scale (0 no effect, 100 complete control), approx. 10 d
# [20] = Postemergence, 500 g ai/ha, 0 to 100 scale where 0 is no effect and 100 is complete control
# [21] = 125 g ai/ha, Preemergence, visual injury after approximately 10 d, 0 to 100 scale where 0 is no effect and 100 is complete control
# [22] = Preemergence, 500 g ai/ha, visual injury approx. 10 d
# [23] = 125 g ai/ha, postemergence, visual rating after approx. 10 d, 0 to 100 scale (0 no effect, 100 complete control)
# [24] = 500 g ai/ha, postemergence, visual injury, 0 to 100 scale (0 no effect, 100 complete control), approx. 10 d
# [25] = 500 g ai/ha, preemergence, 0 to 100 scale, 0 = no effect, 100 = complete control
structure (smiles),measurement,setting,value
C=C(C)CN1CC(c2cccc(C(F)(F)F)c2)C(C(=O)Nc2ccccc2F)C1=O (stereo not drawn) [Compound 481],"Plant response rating, Barnyardgrass",[1],0
same,"Plant response rating, Rice",rice (Oryra sativa),0
same,"Plant response rating, Sedge, Umbrella",[2],0
same,"Plant response rating, Ducksalad",[3],0
same,Corn plant response rating,corn (Zea mays); [19],0
same,"Plant response rating, Corn",corn (Zea mays); [20],0
same,Kochia plant response rating,Kochia (Kochia scoparia) [4]; [19],0
same,"Plant response rating, Kochia",Kochia (Kochia scoparia) [4]; [20],0
same,"Foxtail, Giant plant response rating",[5]; [19],0
same,"Plant response rating, Foxtail, Giant",[5]; [20],20
same,"Ryegrass, Italian plant response rating",[6]; [19],0
same,"Plant response rating, Ryegrass, Italian",[6]; [20],0
same,Barnyardgrass plant response rating,[7]; [19],0
same,"Plant response rating, Barnyardgrass",[7]; [20],20
same,Wheat plant response rating,[8]; [19],0
same,"Plant response rating, Wheat",[8]; [20],20
same,Galium plant response rating,[9]; [19],0
same,"Plant response rating, Galium",[9]; [20],0
same,Blackgrass plant response rating,[10]; [19],0
same,"Plant response rating, Blackgrass",[10]; [20],0
same,Ragweed plant response rating,[11]; [19],0
same,"Plant response rating, Ragweed",[11]; [20],0
same,Pigweed plant response rating,[12]; [19],0
same,"Plant response rating, Pigweed",[12]; [20],0
same,"Plant response rating, Kochia",Kochia (Kochia scoparia) [13]; [21],0
same,"Kochia plant response rating (0 to 100 scale, 0 is no effect, 100 is complete control)",Kochia (Kochia scoparia) [13]; [22],0
same,"Plant response rating, Foxtail, Giant",[14]; [21],50
same,"Foxtail, Giant plant response rating (0 to 100 scale, 0 is no effect, 100 is complete control)",[14]; [22],90
same,"Plant response rating, Ryegrass, Italian",[15]; [21],0
same,"Ryegrass, Italian plant response rating (0 to 100 scale, 0 is no effect, 100 is complete control)",[15]; [22],0
same,"Plant response rating, Barnyardgrass",[16]; [21],0
same,"Barnyardgrass plant response rating (0 to 100 scale, 0 is no effect, 100 is complete control)",[16]; [22],10
same,"Plant response rating, Ragweed",[17]; [21],0
same,"Ragweed plant response rating (0 to 100 scale, 0 is no effect, 100 is complete control)",[17]; [22],0
same,"Plant response rating, Pigweed",[18]; [21],0
same,"Pigweed plant response rating (0 to 100 scale, 0 is no effect, 100 is complete control)",[18]; [22],0
CCc1cc(C2CNC(=O)C2C(=O)Nc2ccccc2F)cs1 (racemic) [Compound 657],"Plant response rating, Barnyardgrass",[1],40
same,"Plant response rating, Rice",rice (Oryra sativa),0
same,"Plant response rating, Sedge, Umbrella",[2],0
same,"Plant response rating, Ducksalad",[3],100
same,"Plant response rating, Corn",corn (Zea mays); [23],0
same,"Plant response rating, Corn",corn (Zea mays); [24],0
same,"Plant response rating, Kochia",Kochia (Kochia scoparia) [4]; [23],0
same,"Plant response rating, Kochia",Kochia (Kochia scoparia) [4]; [24],0
same,"Plant response rating, Foxtail, Giant",[5]; [23],0
same,"Plant response rating, Foxtail, Giant",[5]; [24],60
same,"Plant response rating, Ryegrass, Italian",[6]; [23],0
same,"Plant response rating, Ryegrass, Italian",[6]; [24],0
same,"Plant response rating, Barnyardgrass",[7]; [23],90
same,"Plant response rating, Barnyardgrass",[7]; [24],90
same,"Plant response rating, Wheat",[8]; [23],0
same,"Plant response rating, Wheat",[8]; [24],0
same,"Plant response rating, Galium",[9]; [23],0
same,"Plant response rating, Galium",[9]; [24],30
same,"Plant response rating, Blackgrass",[10]; [23],0
same,"Plant response rating, Blackgrass",[10]; [24],30
same,"Plant response rating, Ragweed",[11]; [23],0
same,"Plant response rating, Ragweed",[11]; [24],0
same,"Plant response rating, Pigweed",[12]; [23],0
same,"Plant response rating, Pigweed",[12]; [24],0
same,"Plant response rating, Kochia",Kochia (Kochia scoparia) [13]; [21],20
same,"Plant response rating, Kochia",Kochia (Kochia scoparia) [13]; [25],40
same,"Plant response rating, Foxtail, Giant",[14]; [21],90
same,"Plant response rating, Foxtail, Giant",[14]; [25],90
same,"Plant response rating, Ryegrass, Italian",[15]; [21],20
same,"Plant response rating, Ryegrass, Italian",[15]; [25],30
same,"Plant response rating, Barnyardgrass",[16]; [21],90
same,"Plant response rating, Barnyardgrass",[16]; [25],90
same,"Plant response rating, Ragweed",[17]; [21],20
same,"Plant response rating, Ragweed",[17]; [25],20
same,"Plant response rating, Pigweed",[18]; [21],20
same,"Plant response rating, Pigweed",[18]; [25],30
